Experimental data taken from patent US7626075B2, “Growth of foreign cells in fetal animals facilitated by conditional and selective destruction of native host cells” (priority 2002, dated 2009).
Where two headings read alike, the source gives them in different places.

What was measured:
pancreatic islets [1] = settings: injected into fetal animals; cited from earlier work
pancreatic islets [2] = settings: injected into fetal animals; cited from earlier work; remark: listed apart in the source
[3] = tested on: Huh-7 cells stably transfected with AlbxTK; test: Gancyclovir sensitivity of Huh-7 cells transfected with AlbxTK, propidium iodine FACS; format: cell-based, human
Description: Mouse and human liver cell lines were transfected with constructs containing delta thymidine kinase under the control of either a porcine albumin or α-fetoprotein (AFP) promoter. The mouse cell line (TIB73) is a line of mature hepatocytes in which albumin is expressed. The human cell line (Huh-7) is a line of hepatocellular carcinoma cells that express predominantly AFP. The transfected cells were tested for thymidine kinase by Western blot. To assess the function of mutated thymidine kinase, Huh-7 cells were stably transfected with AlbxTK. Transfected cells were selected using 200 μg/ml Zeocin. Transfected cells as well as untransfected cells were plated in duplicate in 24-well plates at a 40 percent confluence ratio. Gancyclovir was added to the cells in the culture media at different concentrations (4 μM, 8 μM, and 16 μM. […]

[4] = tested on: untransfected Huh-7 cells; test: Gancyclovir effect on untransfected cells, propidium iodine FACS; format: cell-based, human; settings: gancyclovir 4, 8, 16 μM in culture media
Description: To assess the function of mutated thymidine kinase, Huh-7 cells were stably transfected with AlbxTK. Transfected cells were selected using 200 μg/ml Zeocin. Transfected cells as well as untransfected cells were plated in duplicate in 24-well plates at a 40 percent confluence ratio. Gancyclovir was added to the cells in the culture media at different concentrations (4 μM, 8 μM, and 16 μM. After 5 days, the cells were trypsinized, washed twice in PBS, and stained with propidium iodine for FACS analysis.

[5] = tested on: fetal mice heterozygous for thymidine kinase under the albumin promoter; settings: for fetal hepatocyte injury (histology): 14 days gestation
Source text: The suicide gene product preferably is expressed in the appropriate tissue of the fetal host mammal at a level sufficient to be sensitive to a prodrug. The optimal dose of a prodrug depends on the prodrug, the particular suicide gene, the level of suicide gene expression in the target cells, zygosity of the fetal mammal, route of administration, and placental transport. Optimal doses can readily be determined by administering increasing doses of the prodrug to the pregnant mammal, assessing the effect on the target cells using standard pathology methods and assessing the effect on fetal survival using ultrasound and pathology techniques. The optimal dose would produce significant cell injury (>20%) with a minimum of fetal deaths (<15%).
Transgenic mice were produced with the FVB strain containing the mutated thymidine kinase transgene under the albumin promoter. […] These males were bred with non-transgenic FVB mice. At 14 days gestation, gancyclovir (0 to 100 mg/kg body weight) was injected intravenously into the pregnant mice. Tissues from the mothers and fetuses were analyzed by histology.

[6] = tested on: non-transgenic FVB mice (mothers); test: Gancyclovir i.v. to pregnant non-transgenic mice, histology of the mothers; format: in vivo, mouse; settings: any dose (0 to 100 mg/kg i.v.)
Source text: These males were bred with non-transgenic FVB mice.

fetal pig liver = test: Engraftment of human hepatocytes in fetal pigs after gancyclovir to the sow and human cord blood cell infusion; format: in vivo; settings: gancyclovir 100 mg/kg i.v. to sow
Description: A non-transgenic sow is bred with a boar that is hemizygous for a mutated thymidine kinase transgene under the control of an albumin promoter. Pregnancy is confirmed with ultrasound and gancyclovir (100 mg/kg, i.v.) is administered at 40 days gestation. A laparotomy is performed at 45 days. Each pig is infused with 10×10^6 human cord blood cells. The piglets are delivered at term by Caesarean section. Blood is drawn from each fetal pig and analyzed for the presence of the suicide transgene using PCR. Serum is tested for the presence of human liver proteins, including albumin, α1-antitrypsin, and serum amyloid A. Sections of liver are frozen and stained for human albumin.

[7] = tested on: mice expressing thymidine kinase under the albumin promoter; test: Engraftment of human hepatocytes in transgenic mice given gancyclovir after birth; format: in vivo, mouse; settings: 50 mg/kg on days 1 and 3 at 14 days of age; sacrificed thirty days later
Description: Transgenic mice are produced that express the thymidine kinase gene under the albumin promoter. The male mice are bred with wild type females. Human hepatocytes (2×10^6 per fetal mouse) are injected at 17 days gestation, just prior to delivery. At 14 days of age, the mice are injected with gancyclovir (50 mg/kg) on days 1 and 3 or with the vehicle. Thirty days later, the mice are sacrificed.

[8] = tested on: hepatocytes of adult transgenic mice; settings: administered to adult transgenic mice; cited from earlier work

For `CN(N=O)C(=O)N[C@H]1C(O)O[C@H](CO)[C@@H](O)[C@@H]1O` (mixture of isomers) [streptozotocin], the “effect on fetal pancreatic islets” value (pancreatic islets [1]) is given as “destroys the pancreatic islets”, the “effect on maternal islets” value (pancreatic islets [1]) is given as “relatively little effect” and the “effect on fetal pancreatic islets” value (pancreatic islets [2]) is given as “destroys the pancreatic islets”. The “effect on maternal islets” value (pancreatic islets [2]) was “relatively little effect”.
In the case of `Nc1nc(O)c2ncn(COC(CO)CO)c2n1` [gancyclovir], the cell death ([3]; 8 or 16 μM gancyclovir, 5 days) is reported as “significantly more cell death”, the cell killing ([3]; 7 days) is reported as “entirely killed” and the “effect on non-transfected cells” value [4] is reported as “only a minimal effect”. For the same compound, the fetal survival ([5]; 25 mg/kg intravenous injection to pregnant mouse) was “the fetal pups survived”, the fetal survival ([5]; 50 mg/kg and higher, to pregnant mouse) was “the fetal mice died” and the “fetal hepatocyte injury (histology)” value ([5]; 50 mg/kg i.v. to pregnant mouse) was “massive hepatic necrosis”. The “fetal hepatocyte injury (histology)” value ([5]; 100 mg/kg i.v. to pregnant mouse) was “massive hepatic necrosis”, the “injury to the non-liver tissues in the fetal mice” value ([5]; mouse, in vivo) was “no observable injury” and the placental transfer ([5]; mouse, in vivo, iv) was “crosses the placental barrier”. The “injury to the hepatocytes of the mother” value [6] was “no observable injury”, the “levels of human albumin, α1-antitrypsin inhibitor and serum amyloid A” value (fetal pig liver; piglets without thymidine kinase transgene) was “less than 1 % of levels seen in humans” and the “liver engrafted with human hepatocytes” value (fetal pig liver; pigs with thymidine kinase suicide gene, average) was 25 % of the total liver. For the same compound, the “liver engrafted with human hepatocytes” value (fetal pig liver; pigs without suicide transgene) was “less than 2 % of the total liver”, the “engraftment with human hepatocytes versus controls not treated” value [7] was “substantially greater engraftment” and the hepatocyte death [8] was “Most of the hepatocytes then died off”.
